Experimental data published in patent publication US20060063707A1, “Compositions for enhancing memory and methods therefor” (Lifelike Biomatic, Inc., priority 2004, published 2006).
Entries after “also recorded” stand apart in the source; their conditions may differ.

Key:
[1] = tested on: LTP; conditions: agent alone; cited from earlier work
[2] = tested on: scopolamine-induced learning and memory deficits; test: Morris water maze, scopolamine-induced learning deficits (escape latency); type: in vivo, Male Wistar rats
Protocol: Learning and memory performance: Learning and memory performances were tested in the conventional Morris water maze according to the following procedure. The Morris maze includes a circular water tank (150 cm in diameter) filled with water and maintained at 27° C. with an escape platform (15 cm in diameter) 18 cm from the perimeter always in the same position 2 cm beneath the surface of the water. The water is made opaque by addition of milk powder rendering the platform invisible.
Male Wistar rats (200-230 g body weight, maintained in standard laboratory conditions) were given a single training session on one day. A training session consists of 4 consecutive trials (T1-T4) in the Morris water maze separated by 60 seconds. For each trial the animal is placed in the maze at one of two starting points equidistant from the escape platform and allowed to find the escape platform. The animal is left on the escape platform for 60 seconds before starting a new trial. […] During the 4 trials the animals start the maze twice from each starting point in a randomly determined order per animal. The time the animal takes to find the escape platform is referred to as the “escape latency.”
Measure of escape latency in control and test animals: The ampakine, the nemdakine, and the combination of ampakine and nemdakine of the present invention were administered p.o. to test animals 60 minutes before a test session in the maze (t=−60 min). Scopolamine was administered i.p. to induce learning and memory deficits 30 minutes later, i.e., 30 minutes before the test session in the maze (t=−30 min). Scopolamine induces amnesia as shown by the failure of scopolamine-treated animals to reduce their escape latencies from trial to trial. […]
The principal measure taken at each trial was the escape latency. Measures consisted in the time the animals took to find the platform and were analyzed by ANOVA with repeated measures. […]

[3] = biological target: T1, GluR4 flip (Homo sapiens, UniProt P48058); test: Potentiation of L-glutamate mediated currents on HEK cells expressing GluR4 flip (Ornstein et al.); type: cell-based
T1 construct: expressed in transfected cells; host or cells: HEK cells
T1 sequence (P48058 21-902): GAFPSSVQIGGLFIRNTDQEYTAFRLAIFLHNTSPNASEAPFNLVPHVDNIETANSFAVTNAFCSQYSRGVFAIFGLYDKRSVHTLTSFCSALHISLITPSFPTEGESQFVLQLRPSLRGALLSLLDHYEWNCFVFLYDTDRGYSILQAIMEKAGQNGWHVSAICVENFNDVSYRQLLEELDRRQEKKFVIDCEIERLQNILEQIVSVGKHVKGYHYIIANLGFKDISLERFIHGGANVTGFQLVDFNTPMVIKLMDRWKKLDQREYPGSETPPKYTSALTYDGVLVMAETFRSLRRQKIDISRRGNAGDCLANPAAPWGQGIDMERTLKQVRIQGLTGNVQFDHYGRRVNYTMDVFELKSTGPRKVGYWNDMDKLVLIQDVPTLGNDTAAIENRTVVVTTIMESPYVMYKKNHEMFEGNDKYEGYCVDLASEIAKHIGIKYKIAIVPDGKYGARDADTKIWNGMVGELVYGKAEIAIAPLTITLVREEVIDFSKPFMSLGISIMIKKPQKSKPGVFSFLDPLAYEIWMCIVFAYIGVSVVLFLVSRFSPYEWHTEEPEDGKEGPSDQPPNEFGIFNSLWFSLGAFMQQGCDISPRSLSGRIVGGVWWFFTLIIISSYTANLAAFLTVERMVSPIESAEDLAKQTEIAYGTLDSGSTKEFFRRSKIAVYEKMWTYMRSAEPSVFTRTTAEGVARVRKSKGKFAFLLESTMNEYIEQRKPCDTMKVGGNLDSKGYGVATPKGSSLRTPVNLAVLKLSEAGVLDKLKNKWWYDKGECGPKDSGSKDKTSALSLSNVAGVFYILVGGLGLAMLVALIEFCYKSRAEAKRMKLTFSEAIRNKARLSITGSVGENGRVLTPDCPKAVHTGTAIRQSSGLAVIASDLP
Protocol: From a study of the structure-activity relationship of the compounds of Ornstein (Ornstein, et al., 2000, ibid), a derivative of LY404187 designated 22h was chosen to provide the ampakine functionality of the new fusion molecule. The structural difference between LY404187 and the 22h derivative is that 22h has an amino substituent on the distal aromatic ring of the biphenyl group instead of a cyano substituent.

[4] = tested on: adult mice hippocampal slices; test: LTP induction in hippocampal slices (EPSP slopes in CA1 after theta-burst stimulation); type: cell-based
Protocol: Adult mice hippocampal slices were prepared according to standard procedures as described in Dunwiddie and Lynch (J. Physiol. 276:353-367. 1978). Briefly, mice were decapitated following anesthesia, the brains rapidly removed and the hippocampus dissected. Transverse hippocampal slices (400 μm thick) were cut with a McIllwain tissue slicer (Stoelting Co., Wood Dale, Ill.). Slices were pre-incubated for at least 60 min in an artificial cerebrospinal fluid (aCSF) containing (in mM) NaCl (124), KCl (3), KH2PO4 (1.25), MgSO4 (2.5), CaCl2 (3.4), NaHCO3 (26), glucose (10); and L-ascorbate (2) before being placed in a recording chamber. Slices were continuously perfused with aCSF containing no added drug, 20 μM CX546, 2 μM D, L-serine, or a combination of 20 μM CX546 and 2 μM D, L-serine. A stimulating electrode was placed in the stratum radiatum at the junction of CA3 and CA1 and a recording electrode was placed in the stratum radiatum of CA1. Baseline recording with a stimulation frequency of 0.033 Hz was done for at least 10 min. After obtaining a stable baseline for 10 min, LTP was elicited in CA1 stratum radiatum by stimulation of the Schaffer collateral pathways by using high frequency stimulation of 5 bursts of 3 pulses at 100 Hz, with the bursts delivered at the theta frequency, i.e., 5 Hz. Low frequency stimulation was resumed and responses recorded for at least 30 min.
Slopes of the extracellular postsynaptic potentials (EPSPs) were calculated and expressed as percent of the average values recorded during the 10 min baseline period. Results were averaged and expressed as means±s.e.m.
In particular, slices were prepared as cited above and EPSPs were evoked in CA1 stratum radiatum by stimulation of the Schaffer collateral pathways once every 30 seconds. At t=0, high frequency stimulation (5 bursts of 3 pulses at 100 Hz with bursts delivered at 5 Hz) was delivered, and low frequency stimulation resumed. Slopes of EPSPs were calculated and expressed as percent over the average values during the 10 minute baseline. […] The data of FIG. 3 therefore represent the means±s.e.m., of 8 slices for control conditions (●), and 6 slices for the combination of 250 μM piracetam and 2 μM D, L-serine (▪). Results were statistically significant with ANOVA with repeated measures.
Slices were incubated in control medium. LB-302 (100 μM) was added to the medium at t=20 min and LTP was induced as in Example 1 by using high frequency stimulation of 5 bursts of 3 pulses at 100 Hz, with the bursts delivered at the theta frequency, i.e., 5 Hz delivered at t=47 min.

[5] = tested on: AMPA-induced currents in cerebellar Purkinje cells as well as in hippocampal pyramidal neurons; test: Increase of AMPA-induced currents in neurons (Gates et al.); type: cell-based
Description: The ampakine functionality of LB-253-4c is a biarylpropylsulfonamide (Ornstein et al., ibid). […] The new fusion molecule, LB-253-4c, therefore, likely has a different mode of action compared to that of cyclothiazide, a mode of action more directed towards deactivation instead of desensitization.

[6] = biological target: T1, GluR4 flip; conditions: HEK cells expressing GluR4 flip; read-out: potentiation of the L-glutamate mediated currents; cited from earlier work

**Q.** Which results are given for `N[C@H](CO)C(=O)O` [D-serine]?
**A.** concentration known to facilitate LTP [1]: 10 µM; reversal of scopolamine-induced impairment ([2]; 1000 mg/kg p.o. at t=−60 min, then scopolamine 0.5 mg/kg i.p.): statistically significant reversal of scopolamine-induced impairment

**Q.** For `CC(CNS(=O)(=O)C(C)C)c1ccc(-c2ccc(N)cc2)cc1` (centres unmarked) [22h], which “activity relative to LY404187” value [3] is on record?
**A.** about 2 fold

**Q.** Which “performance (escape latency) across the 4 trials” value ([2]; scopolamine alone 0.5 mg/kg i.p. at t=−30 min) does the source give for `CN1[C@@H]2C[C@@H](OC(=O)[C@H](CO)c3ccccc3)C[C@H]1[C@@H]1O[C@@H]12` [scopolamine] here?
**A.** failed to improve their performance across the 4 trials

**Q.** What does the source list for `NC(=O)CN1CCCC1=O` [piracetam]?
**A.** reversal of scopolamine-induced learning impairment ([2]; 500 mg/kg p.o. at t=−60 min, then scopolamine 0.5 mg/kg i.p.): trend towards a reversal of scopolamine-induced learning impairment, although this effect did not reach statistical significance; effect on the responses (EPSP slope) ([4]; piracetam 250 μM alone): did not produce any significant effect

**Q.** With `NC(CO)C(=O)O` (racemic) [D, L-serine] as the compound, how does the “levels of potentiation / responses (EPSP slope) as compared to control slices” value ([4]; 2 μM D, L-serine alone) read?
**A.** did not modify the levels of potentiation; also recorded: did not produce any significant effect

**Q.** With `CC(CNS(=O)(=O)C(C)C)c1ccc(-c2ccc(C#N)cc2)cc1` (centres unmarked) [LY404187, N-2-(4-(cyanophenyl)phenyl)propyl-2-propanesulfonamide] as the compound, how does the “potency relative to CX546” value [5] read?
**A.** about 1000 times

**Q.** What about the EC50 [6] of the same compound?
**A.** 290 nM

**Q.** Which LTP amplitude ([4]; LB-302 100 μM) does the source give for `NC(CO)(CC1=CCN(Cc2ccccc2)CC1)C(=O)O` (centres unmarked) [LB-302, 2-amino-3-(1-benzyl-1,2,3,6-tetrahydro-pyridin-4-yl)-2-hydroxymethyl-propionic acid] here?
**A.** dramatic increase in LTP amplitude

**Q.** And the baseline response ([4]; LB-302 100 μM)?
**A.** small increase in baseline response
